pIC50: −log10 of the molar value.
Tested on: 648629-189-R-J1-PDC spheroids with HUVEC/MSC, viability
Assay: Anticancer human tumor 648629-189-R-J1-PDC patient-derived bladder carcinoma cell line growth inhibition [PI3K]
Conditions: for pIC50: curve of first compound; for viability, T/C: stronger effect = lower value
Summary of the method: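 Tumor cells were combined with HUVEC and MSCs into spheroids, then dosed with PI3K-inhibitor combinations over half-log ranges capped near clinical Cmax or 10 microM.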

[1] = second compound 0.0316 µM, first compound 0.0316 µM
[2] = second compound 0.0316 µM, first compound 0.1 µM
[3] = second compound 0.0316 µM, first compound 0.316 µM
[4] = second compound 0.0316 µM, first compound 1 µM
[5] = second compound 0.0316 µM, first compound 3.16 µM
[6] = second compound 0.0316 µM, first compound 10 µM
[7] = second compound 0.1 µM, first compound 0.0316 µM
[8] = second compound 0.1 µM, first compound 0.1 µM
[9] = second compound 0.1 µM, first compound 0.316 µM
[10] = second compound 0.1 µM, first compound 1 µM
[11] = second compound 0.1 µM, first compound 3.16 µM
[12] = second compound 0.1 µM, first compound 10 µM
[13] = second compound 0.316 µM, first compound 0.0316 µM
[14] = second compound 0.316 µM, first compound 0.1 µM
[15] = second compound 0.316 µM, first compound 0.316 µM
[16] = second compound 0.316 µM, first compound 1 µM
[17] = second compound 0.316 µM, first compound 3.16 µM
[18] = second compound 0.316 µM, first compound 10 µM
[19] = second compound 1 µM, first compound 0.0316 µM
[20] = second compound 1 µM, first compound 0.1 µM
[21] = second compound 1 µM, first compound 0.316 µM
[22] = second compound 1 µM, first compound 1 µM
[23] = second compound 1 µM, first compound 3.16 µM
[24] = second compound 1 µM, first compound 10 µM
[25] = second compound 3.16 µM, first compound 0.0316 µM
[26] = second compound 3.16 µM, first compound 0.1 µM
[27] = second compound 3.16 µM, first compound 0.316 µM
[28] = second compound 3.16 µM, first compound 1 µM
[29] = second compound 3.16 µM, first compound 3.16 µM
[30] = second compound 3.16 µM, first compound 10 µM
[31] = second compound 10 µM, first compound 0.0316 µM
[32] = second compound 10 µM, first compound 0.1 µM
[33] = second compound 10 µM, first compound 0.316 µM
[34] = second compound 10 µM, first compound 1 µM
[35] = second compound 10 µM, first compound 3.16 µM
[36] = second compound 10 µM, first compound 10 µM
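Further: spheroids exposed to agents for seven days before reading.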
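Wherever viability, T/C is given: percent of vehicle control luminescence where 100% = DMSO treated spheroids.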

SMILES: C=CC(=O)N1CCN(c2nc(=O)n(-c3c(C)ccnc3C(C)C)c3nc(-c4c(O)cccc4F)c(F)cc23)C(C)C1 (stereo unspecified) + Cc1nc(NC(=O)N2CCCC2C(N)=O)sc1-c1ccnc(C(C)(C)C(F)(F)F)c1
- pIC50 (second compound 0.0316 µM): < 5.00
- pIC50 (second compound 0.1 µM): < 5.00
- pIC50 (second compound 0.316 µM): < 5.00
- pIC50 (second compound 1 µM): < 5.00
- pIC50 (second compound 3.16 µM): < 5.00
- pIC50 (second compound 10 µM): > 7.50
- viability, T/C [1]: 99%
- viability, T/C [2]: 101%
- viability, T/C [3]: 107%
- viability, T/C [4]: 105%
- viability, T/C [5]: 113%
- viability, T/C [6]: 82.8%
- viability, T/C [7]: 92.2%
- viability, T/C [8]: 102%
- viability, T/C [9]: 107%
- viability, T/C [10]: 99%
- viability, T/C [11]: 106%
- viability, T/C [12]: 90.3%
- viability, T/C [13]: 83.5%
- viability, T/C [14]: 95%
- viability, T/C [15]: 95.6%
- viability, T/C [16]: 96.3%
- viability, T/C [17]: 107%
- viability, T/C [18]: 84.7%
- viability, T/C [19]: 73.4%
- viability, T/C [20]: 82.7%
- viability, T/C [21]: 87.5%
- viability, T/C [22]: 86.5%
- viability, T/C [23]: 88.2%
- viability, T/C [24]: 79.7%
- viability, T/C [25]: 61.2%
- viability, T/C [26]: 57.5%
- viability, T/C [27]: 65%
- viability, T/C [28]: 72%
- viability, T/C [29]: 72.5%
- viability, T/C [30]: 70.8%
- viability, T/C [31]: 39.5%
- viability, T/C [32]: 40.7%
- viability, T/C [33]: 42.4%
- viability, T/C [34]: 41.5%
- viability, T/C [35]: 47.1%
- viability, T/C [36]: 38.4%

SMILES: CC(C)NCC(C(=O)N1CCN(c2ncnc3c2C(C)CC3O)CC1)c1ccc(Cl)cc1 (stereo unspecified) + CC(Nc1ncnc2nc[nH]c12)c1cc2cccc(Cl)c2c(=O)n1-c1ccccc1
- pIC50 (second compound 0.0316 µM): 5.98
- pIC50 (second compound 0.1 µM): 5.82
- pIC50 (second compound 0.316 µM): 5.94
- pIC50 (second compound 1 µM): 5.91
- pIC50 (second compound 3.16 µM): 6.04
- pIC50 (second compound 10 µM): 6.00
- viability, T/C [1]: 99.8%
- viability, T/C [2]: 93.6%
- viability, T/C [3]: 82%
- viability, T/C [4]: 49.4%
- viability, T/C [5]: 28.9%
- viability, T/C [6]: 17.3%
- viability, T/C [7]: 97.3%
- viability, T/C [8]: 90.3%
- viability, T/C [9]: 79.7%
- viability, T/C [10]: 61.3%
- viability, T/C [11]: 32.2%
- viability, T/C [12]: 19.3%
- viability, T/C [13]: 97.4%
- viability, T/C [14]: 91.2%
- viability, T/C [15]: 76.3%
- viability, T/C [16]: 53.4%
- viability, T/C [17]: 29.2%
- viability, T/C [18]: 17.7%
- viability, T/C [19]: 93.6%
- viability, T/C [20]: 94.5%
- viability, T/C [21]: 80.7%
- viability, T/C [22]: 54.2%
- viability, T/C [23]: 29.4%
- viability, T/C [24]: 17.5%
- viability, T/C [25]: 101%
- viability, T/C [26]: 91.3%
- viability, T/C [27]: 72.6%
- viability, T/C [28]: 48.6%
- viability, T/C [29]: 25.9%
- viability, T/C [30]: 15.5%
- viability, T/C [31]: 83.8%
- viability, T/C [32]: 72.2%
- viability, T/C [33]: 79.4%
- viability, T/C [34]: 48.4%
- viability, T/C [35]: 28.3%
- viability, T/C [36]: 18.2%

SMILES: Cn1ncnc1[C@H]1c2n[nH]c(=O)c3cc(F)cc(c23)N[C@@H]1c1ccc(F)cc1 + COc1c(OCCCN2CCOCC2)ccc2c3n(c(=NC(=O)c4cnc(N)nc4)nc12)CCN3
- pIC50 (second compound 0.00316 µM): < 7.00
- pIC50 (second compound 0.01 µM): < 7.00
- pIC50 (second compound 0.0316 µM): < 7.00
- pIC50 (second compound 0.1 µM): 7.49
- pIC50 (second compound 0.316 µM): > 9.50
- pIC50 (second compound 1 µM): > 9.50
- viability, T/C (second compound 0.00316 µM, first compound 0.000316 µM): 100%
- viability, T/C (second compound 0.00316 µM, first compound 0.001 µM): 92.2%
- viability, T/C (second compound 0.00316 µM, first compound 0.00316 µM): 106%
- viability, T/C (second compound 0.00316 µM, first compound 0.01 µM): 88.5%
- viability, T/C (second compound 0.00316 µM, first compound 0.0316 µM): 83.4%
- viability, T/C (second compound 0.00316 µM, first compound 0.1 µM): 59.3%
- viability, T/C (second compound 0.01 µM, first compound 0.000316 µM): 92.3%
- viability, T/C (second compound 0.01 µM, first compound 0.001 µM): 92.1%
- viability, T/C (second compound 0.01 µM, first compound 0.00316 µM): 88.7%
- viability, T/C (second compound 0.01 µM, first compound 0.01 µM): 93.6%
- viability, T/C (second compound 0.01 µM, first compound 0.0316 µM): 86.5%
- viability, T/C (second compound 0.01 µM, first compound 0.1 µM): 60.6%
- viability, T/C (second compound 0.0316 µM, first compound 0.000316 µM): 88.5%
- viability, T/C (second compound 0.0316 µM, first compound 0.001 µM): 93.3%
- viability, T/C (second compound 0.0316 µM, first compound 0.00316 µM): 85.4%
- viability, T/C (second compound 0.0316 µM, first compound 0.01 µM): 73.5%
- viability, T/C [1]: 65.6%
- viability, T/C [2]: 55.3%
- viability, T/C (second compound 0.1 µM, first compound 0.000316 µM): 66.7%
- viability, T/C (second compound 0.1 µM, first compound 0.001 µM): 60.7%
- viability, T/C (second compound 0.1 µM, first compound 0.00316 µM): 57.5%
- viability, T/C (second compound 0.1 µM, first compound 0.01 µM): 57.2%
- viability, T/C [7]: 51.8%
- viability, T/C [8]: 41%
- viability, T/C (second compound 0.316 µM, first compound 0.000316 µM): 20.3%
- viability, T/C (second compound 0.316 µM, first compound 0.001 µM): 19.2%
- viability, T/C (second compound 0.316 µM, first compound 0.00316 µM): 18.7%
- viability, T/C (second compound 0.316 µM, first compound 0.01 µM): 16.4%
- viability, T/C [13]: 20%
- viability, T/C [14]: 15.4%
- viability, T/C (second compound 1 µM, first compound 0.000316 µM): 4.4%
- viability, T/C (second compound 1 µM, first compound 0.001 µM): 3.64%
- viability, T/C (second compound 1 µM, first compound 0.00316 µM): 3.49%
- viability, T/C (second compound 1 µM, first compound 0.01 µM): 3.59%
- viability, T/C [19]: 3.84%
- viability, T/C [20]: 2.43%

Reference: PubChem BioAssay AID1963974 (Molecular Pharmacology Branch, DTP, NCI, 2024)
